The melting point is the temperature of the solid-liquid transition. As to `O=C(Nc1cnc(-c2ccccc2)nc1C(=O)O)OCc1cc2cc(-c3ccccc3)ccc2o1` [Example 1, 2-Phenyl-5-(5-phenyl-benzofuran-2-ylmethoxycarbonylamino)-pyrimidine-4-carboxylic Acid], the melting point is 184 to 185 °C.

In turn, `O=C(Nc1nn(-c2ccccc2)cc1C(=O)O)OCc1cc2cc(-c3ccccc3)ccc2o1` [Example 2, 1-Phenyl-3-(5-phenyl-benzofuran-2-ylmethoxycarbonylamino)-1H-pyrazole-4-carboxylic Acid] displayed a melting point of 220.6 to 220.8 °C.

As for `O=C(Nc1cnccc1C(=O)O)OCc1cc2cc(-c3ccccc3)ccc2o1` [Example 3, 3-(5-Phenyl-benzofuran-2-ylmethoxycarbonylamino)-isonicotinic Acid], the melting point fell in the range of 235.7 to 238.9 °C.
